Molecular target: T1, matrix metalloproteinase-9 (MMP-9, gelatinase B) (Homo sapiens, UniProt P14780)
T1 construct: gene MMP9
Assay: fluorogenic DQ-gelatin degradation assay with active MMP-9; also gelatin zymography with compound in the incubation buffer
Type: biochemical

T1 sequence (P14780 107-707): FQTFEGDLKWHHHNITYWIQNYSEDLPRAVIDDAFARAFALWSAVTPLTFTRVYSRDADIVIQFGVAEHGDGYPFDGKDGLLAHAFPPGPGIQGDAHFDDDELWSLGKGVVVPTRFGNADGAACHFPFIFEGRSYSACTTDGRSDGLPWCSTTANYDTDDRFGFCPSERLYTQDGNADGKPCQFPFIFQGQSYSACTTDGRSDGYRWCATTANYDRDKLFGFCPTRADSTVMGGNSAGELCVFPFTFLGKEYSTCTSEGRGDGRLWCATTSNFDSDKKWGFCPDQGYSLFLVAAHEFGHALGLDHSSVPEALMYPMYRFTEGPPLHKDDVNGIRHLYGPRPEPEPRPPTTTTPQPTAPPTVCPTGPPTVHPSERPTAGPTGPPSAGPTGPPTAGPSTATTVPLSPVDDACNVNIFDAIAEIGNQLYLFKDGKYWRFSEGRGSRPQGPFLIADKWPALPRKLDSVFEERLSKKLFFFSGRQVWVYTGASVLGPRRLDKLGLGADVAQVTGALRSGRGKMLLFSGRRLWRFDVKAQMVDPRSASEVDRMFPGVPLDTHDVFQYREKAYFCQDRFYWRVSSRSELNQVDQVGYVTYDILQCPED

CN(C)c1ccc(O)c2c1C[C@H]1C[C@H]3[C@H](N(C)C)C(O)=C(C(N)=O)C(=O)[C@@]3(O)C(O)=C1C2=O [minocycline]
IC50: 272 µM

Source: publication PMC5378356, “Differential inhibition of activity, activation and gene expression of MMP-9 in THP-1 cells by azithromycin and minocycline versus bortezomib: A comparative study” (PLoS ONE, 2017)
